Structures are written as SMILES.

One assay deals with T1, MAGL (Mus musculus, UniProt O35678).
T1 construct: mouse brain membrane fraction or cell lysates for mouse assays; from tissue
T1 sequence (O35678 1-303): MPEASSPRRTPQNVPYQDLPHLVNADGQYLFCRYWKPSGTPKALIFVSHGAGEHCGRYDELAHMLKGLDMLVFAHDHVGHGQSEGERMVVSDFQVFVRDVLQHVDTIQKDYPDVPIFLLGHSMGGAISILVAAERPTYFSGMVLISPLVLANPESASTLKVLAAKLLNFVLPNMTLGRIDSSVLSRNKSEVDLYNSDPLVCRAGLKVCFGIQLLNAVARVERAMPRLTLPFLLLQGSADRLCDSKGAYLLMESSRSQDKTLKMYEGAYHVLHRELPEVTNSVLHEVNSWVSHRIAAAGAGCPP
Put plainly: In vitro competitive activity-based protein profiling, mouse MAGL. Type of assay: biochemical. Conditions: for inhibition at 1 µM: read-out: MAGL % inh. 1 μM (mouse). The essentials: (§1)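 Activity measured as fluorescent gel-band intensity of MAGL and FAAH after SDS-PAGE. Before labelling with FP-Rh or HT-01 (30 min, 37 °C), proteomes at 1.0 mg/mL (mouse brain membrane or lysates; human prefrontal cortex or cell membranes) were exposed to varying inhibitor concentrations for 30 min at 37 °C.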

In the next assay the target is T2, FAAH (Mus musculus, UniProt O08914).
T2 construct: mouse brain membrane fraction or cell lysates for mouse assays; from tissue
T2 sequence (O08914 1-579): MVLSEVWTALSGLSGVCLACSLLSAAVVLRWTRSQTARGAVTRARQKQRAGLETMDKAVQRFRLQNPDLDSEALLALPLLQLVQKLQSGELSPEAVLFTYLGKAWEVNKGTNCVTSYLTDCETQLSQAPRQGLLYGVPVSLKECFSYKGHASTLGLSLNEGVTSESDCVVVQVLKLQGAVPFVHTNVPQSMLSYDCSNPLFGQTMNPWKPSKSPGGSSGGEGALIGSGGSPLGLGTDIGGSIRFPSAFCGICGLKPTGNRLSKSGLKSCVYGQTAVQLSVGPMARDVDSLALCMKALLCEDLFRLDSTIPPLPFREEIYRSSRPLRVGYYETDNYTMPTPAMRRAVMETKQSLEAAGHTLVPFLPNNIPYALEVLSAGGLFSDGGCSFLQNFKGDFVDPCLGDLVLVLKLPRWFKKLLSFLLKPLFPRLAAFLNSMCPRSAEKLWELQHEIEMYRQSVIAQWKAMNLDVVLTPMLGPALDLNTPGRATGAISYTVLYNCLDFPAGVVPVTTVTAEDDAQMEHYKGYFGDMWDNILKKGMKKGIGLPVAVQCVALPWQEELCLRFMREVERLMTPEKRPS
Nature of the assay: In vitro competitive activity-based protein profiling, mouse FAAH. Conditions: for inhibition at 1 µM: read-out: FAAH % inh. 1 μM (mouse). In kind it is biochemical. The essentials:
as §1

For the compound `CN(Cc1ccccc1Cl)[C@H]1C[C@@H]2CN(C(=O)n3cc(C(=O)N4CCOCC4)cn3)C[C@@H]2C1` [Example 86, (trans-5-((2-chlorobenzyl)(methyl)amino)hexahydrocyclopenta[c]pyrrol-2(1H)-yl)(4-(morpholine-4-carbonyl)-1H-pyrazol-1-yl)methanone], the inhibition at 1 µM on MAGL (1 μM) was 50 to 75%; on FAAH it was at least 75%.

In the case of `CN(Cc1ccccc1Cl)[C@@H]1C[C@@H]2CN(C(=O)n3cc(C(=O)N4CCN(C5CC5)CC4)cn3)C[C@@H]2C1` [Example 87, (cis-5-((2-chlorobenzyl)(methyl)amino)hexahydrocyclopenta[c]pyrrol-2(1H)-yl)(4-(4-cyclopropylpiperazine-1-carbonyl)-1H-pyrazol-1-yl)methanone], the inhibition at 1 µM on MAGL (1 μM) lay in the range of 25 to 50%; at FAAH, 0 to 25%.

On to `CN(Cc1ccccc1Cl)[C@@H]1C[C@@H]2CN(C(=O)n3cc(C(=O)N4CCCC4)cn3)C[C@@H]2C1` [Example 89, (cis-5-((2-chlorobenzyl)(methyl)amino)hexahydrocyclopenta[c]pyrrol-2(1H)-yl)(4-(pyrrolidine-1-carbonyl)-1H-pyrazol-1-yl)methanone], for which the “MAGL % inh. 1 μM (mouse)” value on MAGL (1 μM) was “C (% inhibition greater than or equal to 25% and less than 50%)”. The inhibition at 1 µM at FAAH was at least 75%.

For the compound `CNC(=O)c1cnn(C(=O)N2C[C@H]3C[C@@H](N(C)Cc4ccccc4C(F)(F)F)C[C@H]3C2)c1` [Example 91, N-methyl-1-(cis-5-(methyl(2-(trifluoromethyl)benzyl)amino)octahydrocyclopenta[c]pyrrole-2-carbonyl)-1H-pyrazole-4-carboxamide], the inhibition at 1 µM was 50 to 75% on MAGL (1 μM) and at least 75% at FAAH.

For the compound `CN(Cc1ccccc1C(F)(F)F)[C@@H]1C[C@@H]2CN(C(=O)n3cc(C(=O)N4CCCC4)cn3)C[C@@H]2C1` [Example 92, (cis-5-(methyl(2-(trifluoromethyl)benzyl)amino)hexahydrocyclopenta[c]pyrrol-2(1H)-yl)(4-(pyrrolidine-1-carbonyl)-1H-pyrazol-1-yl)methanone], the inhibition at 1 µM at MAGL (1 μM) and on FAAH was at least 75% throughout.

For `CN(Cc1ccccc1C(F)(F)F)[C@@H]1C[C@@H]2CN(C(=O)n3cc(C(=O)N4CCOCC4)cn3)C[C@@H]2C1` [Example 93, (cis-5-(methyl(2-(trifluoromethyl)benzyl)amino)hexahydrocyclopenta[c]pyrrol-2(1H)-yl)(4-(morpholine-4-carbonyl)-1H-pyrazol-1-yl)methanone], the inhibition at 1 µM on MAGL (1 μM) is 50 to 75%; at FAAH it was at least 75%.

Take `CN(Cc1ccccc1C(F)(F)F)[C@@H]1C[C@@H]2CN(C(=O)n3cc(C(=O)N4CCN(C5CC5)CC4)cn3)C[C@@H]2C1` [Example 94, (4-cyclopropylpiperazin-1-yl)(1-(cis-5-(methyl(2-(trifluoromethyl)benzyl)amino)octahydrocyclopenta[c]pyrrole-2-carbonyl)-1H-pyrazol-4-yl)methanone]: the inhibition at 1 µM on MAGL (1 μM) is at least 75%; on FAAH, 0 to 25%.

As for `CN(Cc1ccccc1Cl)[C@H]1C[C@@H]2CN(C(=O)n3cc(C(=O)N4CCN(C5CC5)CC4)cn3)C[C@@H]2C1` [Example 95, (trans-5-((2-chlorobenzyl)(methyl)amino)hexahydrocyclopenta[c]pyrrol-2(1H)-yl)(4-(4-cyclopropylpiperazine-1-carbonyl)-1H-pyrazol-1-yl)methanone], the inhibition at 1 µM was at least 75% at MAGL (1 μM) and 0 to 25% on FAAH.

On to `CN(Cc1ccc(C(F)(F)F)cc1)[C@@H]1C[C@@H]2CN(C(=O)n3cc(C(=O)N4CCCC4)cn3)C[C@@H]2C1` [Example 97, (cis-5-(methyl(4-(trifluoromethyl)benzyl)amino)hexahydrocyclopenta[c]pyrrol-2(1H)-yl)(4-(pyrrolidine-1-carbonyl)-1H-pyrazol-1-yl)methanone], for which the inhibition at 1 µM was 50 to 75% at MAGL (1 μM) and at least 75% at FAAH.

For the compound `CN(Cc1ccc(C(F)(F)F)cc1)[C@@H]1C[C@@H]2CN(C(=O)n3cc(C(=O)N4CCN(C5CC5)CC4)cn3)C[C@@H]2C1` [Example 98, (4-cyclopropylpiperazin-1-yl)(1-(cis-5-(methyl(4-(trifluoromethyl)benzyl)amino)octahydrocyclopenta[c]pyrrole-2-carbonyl)-1H-pyrazol-4-yl)methanone], the inhibition at 1 µM at MAGL (1 μM) is at least 75%; on FAAH, 25 to 50%.

In the case of `O=C(N1CC2CN(Cc3ccc(Cl)cc3N3CCOCC3)CC2C1)n1cc(Cl)cn1` (centres unmarked) [Example 99, (4-chloro-1H-pyrazol-1-yl)(5-(4-chloro-2-morpholinobenzyl)hexahydropyrrolo[3,4-c]pyrrol-2(1H)-yl)methanone], the IC50 at MAGL and at FAAH was at most 0.1 µM throughout. Further, the inhibition at 1 µM on MAGL (1 μM) and at FAAH was at least 75% in each case.

With `O=C(N1CC2CN(Cc3ccc(F)cc3N3CCOCC3)CC2C1)n1cc(Cl)cn1` (centres unmarked) [Example 100, (4-chloro-1H-pyrazol-1-yl)(5-(4-fluoro-2-morpholinobenzyl)hexahydropyrrolo[3,4-c]pyrrol-2(1H)-yl)methanone], the figures for the IC50 at MAGL and at FAAH were at most 0.1 µM and 0.1 to 1 µM, respectively. Moreover, the inhibition at 1 µM at MAGL (1 μM) and on FAAH was at least 75% each time.

Consider `O=C(N1CC2CN(Cc3ccc(Cl)cc3N3CCCC3)CC2C1)n1cc(Cl)cn1` (centres unmarked) [Example 101, (4-chloro-1H-pyrazol-1-yl)(5-(4-chloro-2-(pyrrolidin-1-yl)benzyl)hexahydropyrrolo[3,4-c]pyrrol-2(1H)-yl)methanone], for which the figures for the IC50 on MAGL and on FAAH were at most 0.1 µM and 0.1 to 1 µM, respectively. Moreover, the inhibition at 1 µM on MAGL (1 μM) and at FAAH was at least 75% each time.

Turning to `CC(=O)N1CCN(c2cc(Cl)ccc2CN2CC3CN(C(=O)n4cc(Cl)cn4)CC3C2)CC1` (centres unmarked) [Example 102, 1-(4-(5-chloro-2-((5-(4-chloro-1H-pyrazole-1-carbonyl)hexahydropyrrolo[3,4-c]pyrrol-2(1H)-yl)methyl)phenyl)piperazin-1-yl)ethan-1-one], the inhibition at 1 µM on MAGL (1 μM) and at FAAH was at least 75% each time.

Take `O=C(N1CC2CN(Cc3ccc(F)cc3N3CCCC3)CC2C1)n1cc(Cl)cn1` (centres unmarked) [Example 103, (4-chloro-1H-pyrazol-1-yl)(5-(4-fluoro-2-(pyrrolidin-1-yl)benzyl)hexahydropyrrolo[3,4-c]pyrrol-2(1H)-yl)methanone]: the half-maximal inhibitory concentration (IC50) on MAGL and at FAAH was at most 0.1 µM in each case. Moreover, the inhibition at 1 µM at MAGL (1 μM) and on FAAH was at least 75% in each case.

`CC1COCCN1c1cc(F)ccc1CN1CC2CN(C(=O)n3cc(Cl)cn3)CC2C1` (centres unmarked) [Example 104, (4-chloro-1H-pyrazol-1-yl)(5-(4-fluoro-2-(3-methylmorpholino)benzyl)hexahydropyrrolo[3,4-c]pyrrol-2(1H)-yl)methanone]: the inhibition at 1 µM at MAGL (1 μM) and at FAAH was at least 75% in each case.

On to `CC1COCCN1c1cc(Cl)ccc1CN1CC2CN(C(=O)n3cc(Cl)cn3)CC2C1` (centres unmarked) [Example 105, (4-chloro-1H-pyrazol-1-yl)(5-(4-chloro-2-(3-methylmorpholino)benzyl)hexahydropyrrolo[3,4-c]pyrrol-2(1H)-yl)methanone], for which the inhibition at 1 µM on MAGL (1 μM) and at FAAH was at least 75% each time.

With `CC(C)c1ccc(CN2CC3CN(C(=O)n4cc(Cl)cn4)CC3C2)c(N2CCOCC2)c1` (centres unmarked) [Example 106, (4-chloro-1H-pyrazol-1-yl)(5-(4-isopropyl-2-morpholinobenzyl)hexahydropyrrolo[3,4-c]pyrrol-2(1H)-yl)methanone], the half-inhibitory concentration (IC50) is at most 0.1 µM at MAGL and 1 to 10 µM on FAAH. Further, the inhibition at 1 µM was at least 75% at MAGL (1 μM) and 50 to 75% on FAAH.

For the compound `CC(=O)N1CCN(c2cc(F)ccc2CN2CC3CN(C(=O)n4cc(Cl)cn4)CC3C2)CC1` (centres unmarked) [Example 107, 1-(4-(2-((5-(4-chloro-1H-pyrazole-1-carbonyl)hexahydropyrrolo[3,4-c]pyrrol-2(1H)-yl)methyl)-5-fluorophenyl)piperazin-1-yl)ethan-1-one], the values for the IC50 at MAGL and at FAAH were at most 0.1 µM and 0.1 to 1 µM, respectively. In addition, the inhibition at 1 µM at MAGL (1 μM) and on FAAH was at least 75% throughout.

What is called IC50 is the concentration that inhibits the measured activity by half.

(Values after patent US10385057B2, “Pyrazole compounds and methods of making and using same” (Lundbeck La Jolla Research Center, Inc., priority 2015, dated 2019).)
